Source: EP2322149A1, “Methods and compositions for the treatment of ischemia” (Universidad del Pais Vasco, priority 2009, dated 2011)
“Also recorded” adds a separate entry of the source. Where a name gives a salt, the structure may show the parent alone.

Columns and labels:
[1] = target: T1, P2X1 (Homo sapiens, UniProt P51575); conditions: read-out: IC50 P2X1; cited from earlier work
T1 sequence (P51575 1-399): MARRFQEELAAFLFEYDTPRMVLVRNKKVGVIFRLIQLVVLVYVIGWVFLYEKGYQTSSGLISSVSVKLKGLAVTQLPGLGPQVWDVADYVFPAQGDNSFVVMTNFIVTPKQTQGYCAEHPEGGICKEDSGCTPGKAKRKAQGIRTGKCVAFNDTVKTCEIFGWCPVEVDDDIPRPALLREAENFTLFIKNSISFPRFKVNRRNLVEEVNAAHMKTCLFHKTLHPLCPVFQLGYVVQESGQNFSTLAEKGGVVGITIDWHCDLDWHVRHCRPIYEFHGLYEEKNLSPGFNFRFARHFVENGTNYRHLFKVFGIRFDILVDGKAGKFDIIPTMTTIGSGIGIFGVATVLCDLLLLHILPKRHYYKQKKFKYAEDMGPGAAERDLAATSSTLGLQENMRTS

[2] = tested on: optic nerve oligodendrocytes; assay: Mitochondrial membrane potential (JC-1) after OGD in oligodendrocyte cultures; assay type: cell-based, Sprague-Dawley rats; conditions: 1 h OGD; BBG 50 nM, PPADS 100 µM
Method: (§1) Primary cultures of oligodendrocytes derived from optic nerves of 12 day-old Sprague-Dawley rats were obtained as previously described (Matute et al., 1997 Proc Natl Acad Sci U S A 94:8830-8835.).Cells were maintained at 37°C and 5% CO2 in a chemically defined medium (Matute et al., 1997 Proc Natl Acad Sci U S A 94:8830-8835.). After 2-4 days in vitro, cultures were composed of at least 98% 04/Ga1C^+ cells. No microglial cells were detected in these cultures. […] Cell death was determined 24h later using calcein-AM (Invitrogen) as previously described (Matute et al., 1997 Proc Natl Acad Sci U S A 94:8830-8835.). Antagonists were present during in vitro ischaemia and during the next 24h incubation period. […] Calcein was used to quantify the number of cells within the reading field. Fluorescence was measured as above and values were plotted as the percentage of DCFDA/calcein red-orange fluorescence versus control. The changes in mitochondrial membrane potential were monitored with 5,5',6,6'-tetrachloro-1,1',3,3'-tetraethylbenzimidazolcarbocyanine iodide (JC-1; Molecular Probes). […] The changes in the membrane potential were calculated as the red (emission at 590)/green (emission at 520) ratio in each condition and results were normalized to control.

[3] = tested on: AMPA and kainate receptors; assay: Glutamate receptor agonist (AMPA, kainate) induced oligodendrocyte death (calcein fluorescence); assay type: cell-based, Sprague-Dawley rats; conditions: AMPA (100 µM) + cyclothiazide (100 µM), or kainate (3 mM) + GYKI 53655 (50 µM); PPADS 100 µM, BBG 50 nM
Method: as §1

[4] = tested on: optic nerves; assay: Optic nerve ischaemia (OGD), tissue damage by LDH release; parameters: species or system rats; conditions: P28 rat optic nerves, 1h OGD + 2h reperfusion; PPADS 1 mM, BBG 50 nM, oATP 1 mM, apyrase 20 U/ml, MFQ 1 µM, CBX 100 µM, FFA 1 mM
Method: After 1h OGD at 37°C, the medium was replaced with fresh solution containing glucose and equilibrated with 95% O2, 5% CO2 and the nerves were incubated for another 2h at 37°C to simulate reperfusion.

[5] = target: P2X6 (Homo sapiens, UniProt O15547); conditions: read-out: IC50 P2X6; cited from earlier work
[6] = tested on: optic nerve oligodendrocytes; assay: Ca2+ imaging (fura-2) of oligodendrocytes during chemical ischaemia; assay type: cell-based, Sprague-Dawley rats; conditions: chemical ischaemia; PPADS 100 µM, oATP 1 mM
Method: After 2-4 days in vitro, cultures were composed of at least 98% 04/Ga1C^+ cells. No microglial cells were detected in these cultures. […] Cell death was determined 24h later using calcein-AM (Invitrogen) as previously described (Matute et al., 1997 Proc Natl Acad Sci U S A 94:8830-8835.). Antagonists were present during in vitro ischaemia and during the next 24h incubation period. […] Calcein was used to quantify the number of cells within the reading field. Fluorescence was measured as above and values were plotted as the percentage of DCFDA/calcein red-orange fluorescence versus control. […] Molecular Probes). […] The changes in the membrane potential were calculated as the red (emission at 590)/green (emission at 520) ratio in each condition and results were normalized to control. Whole cell recordings were performed at room temperature and at a holding membrane potential of -70 mV. Extracellular bath solution with a pH of 7.3 contained (in mM): […] Patch clamp pipettes (3-5 MΩ) were filled with internal solution at a pH of 7.3 containing (in mM): CsCI 140, CaC12 2, MgC12 2, HEPES 10, EGTA 11, Na-ATP 2. […] Data were analyzed with Excel and Prism software.

[7] = tested on: optic nerve oligodendrocytes; assay: Reactive oxygen species (DCFDA) after OGD in oligodendrocyte cultures; assay type: cell-based, Sprague-Dawley rats; conditions: 1 h OGD; BBG 50 nM, PPADS 100 µM
Method: as §1

[8] = tested on: optic nerve oligodendrocytes; assay: Oxygen and glucose deprivation (OGD) cell death in oligodendrocyte cultures (calcein-AM); assay type: cell-based, Sprague-Dawley rats; conditions: 1h OGD, calcein 24h later; PPADS 100 µM, BBG 50 nM, CNQX 30 µM, APV 100 µM, apyrase 20 U/ml, ARL67156 100 µM, CBX 20 µM, FFA 100 µM, MFQ 1 nM
Method: Primary cultures of oligodendrocytes derived from optic nerves of 12 day-old Sprague-Dawley rats were obtained as previously described (Matute et al., 1997 Proc Natl Acad Sci U S A 94:8830-8835.).Cells were maintained at 37°C and 5% CO2 in a chemically defined medium (Matute et al., 1997 Proc Natl Acad Sci U S A 94:8830-8835.). After 2-4 days in vitro, cultures were composed of at least 98% 04/Ga1C^+ cells. No microglial cells were detected in these cultures. […] Cell death was determined 24h later using calcein-AM (Invitrogen) as previously described (Matute et al., 1997 Proc Natl Acad Sci U S A 94:8830-8835.). Antagonists were present during in vitro ischaemia and during the next 24h incubation period. […] To assay the levels of reactive oxygen species (ROS), cells were loaded with 40 µM 2',7'- dichlorodihyfluoresceindiacetate (DCFDA; Invitrogen) and 1 µM calcein red-orange (Molecular Probes) immediately after OGD. Calcein was used to quantify the number of cells within the reading field. Fluorescence was measured as above and values were plotted as the percentage of DCFDA/calcein red-orange fluorescence versus control. The changes in mitochondrial membrane potential were monitored with 5,5',6,6'-tetrachloro-1,1',3,3'-tetraethylbenzimidazolcarbocyanine iodide (JC-1; Molecular Probes). Immediately after OGD, cells were loaded with JC-1 (3 µM) at 37°C for 30 min. The changes in the membrane potential were calculated as the red (emission at 590)/green (emission at 520) ratio in each condition and results were normalized to control.

[9] = tested on: optic nerve oligodendrocytes; assay: Whole-cell recording of ischaemic inward current in cultured oligodendrocytes (chemical ischaemia); assay type: cell-based, Sprague-Dawley rats
Method: After 2-4 days in vitro, cultures were composed of at least 98% 04/Ga1C^+ cells. No microglial cells were detected in these cultures. […] Cell death was determined 24h later using calcein-AM (Invitrogen) as previously described (Matute et al., 1997 Proc Natl Acad Sci U S A 94:8830-8835.). Antagonists were present during in vitro ischaemia and during the next 24h incubation period. […] Calcein was used to quantify the number of cells within the reading field. Fluorescence was measured as above and values were plotted as the percentage of DCFDA/calcein red-orange fluorescence versus control. […] Molecular Probes). […] The changes in the membrane potential were calculated as the red (emission at 590)/green (emission at 520) ratio in each condition and results were normalized to control. Whole cell recordings were performed at room temperature and at a holding membrane potential of -70 mV. Extracellular bath solution with a pH of 7.3 contained (in mM): […] Patch clamp pipettes (3-5 MΩ) were filled with internal solution at a pH of 7.3 containing (in mM): CsCI 140, CaC12 2, MgC12 2, HEPES 10, EGTA 11, Na-ATP 2. For electrophysiology monitoring, ischaemia was induced chemically by using the glycolytic blocker iodoacetate (1 mM) and the oxidative phosphorylation inhibitor antimycin (2.5 μM), and omitting glucose because recordings were performed in an open chamber where O2 can diffuse to the cells (Káradóttir et al., 2005). Recordings of ATP currents were performed in divalent cation-free extracellular solutions, obtained by omitting Ca^2+ and Mg^2+, to potentiate P2X-mediated responses (Matute et al., 1997 Proc Natl Acad Sci U S A 94:8830-8835.). […] Molecular Probes, Inc., Eugene, OR) in culture medium for 30 min at 37 °C. Experiments were carried out in a coverslip chamber continuously perfused with a buffer containing 20 mM HEPES, 2 mM CaC12, 10 mM glucose in HBSS at 1 ml/min. The perfusion chamber was mounted on the stage of a Zeiss inverted epifluorescence microscope (Axiovert 35), equipped with a 150 W xenon lamp Polychrome IV (TILL Photonics GMBH) and a Plan Neofluar 40x oil immersion objective (Zeiss, Germany). Cells were visualized with a high resolution digital B/W CCD camera (ORCA; Hamamatsu Photonics Iberica, Barcelona, Spain) and image acquisition and data analysis were carried out using the AquaCosmos software program (Hamamatsu Photonics Iberica). Images were acquired every 30 ms at 37°C and ischaemia was induced as above. […] At the end of the assay, in situ calibration was carried out with the successive addition of […] and 2M Tris/50 mM EGTA, pH 8.5. Data were analyzed with Excel and Prism software.

P2X6, sequence (O15547 whole entry, species assumed): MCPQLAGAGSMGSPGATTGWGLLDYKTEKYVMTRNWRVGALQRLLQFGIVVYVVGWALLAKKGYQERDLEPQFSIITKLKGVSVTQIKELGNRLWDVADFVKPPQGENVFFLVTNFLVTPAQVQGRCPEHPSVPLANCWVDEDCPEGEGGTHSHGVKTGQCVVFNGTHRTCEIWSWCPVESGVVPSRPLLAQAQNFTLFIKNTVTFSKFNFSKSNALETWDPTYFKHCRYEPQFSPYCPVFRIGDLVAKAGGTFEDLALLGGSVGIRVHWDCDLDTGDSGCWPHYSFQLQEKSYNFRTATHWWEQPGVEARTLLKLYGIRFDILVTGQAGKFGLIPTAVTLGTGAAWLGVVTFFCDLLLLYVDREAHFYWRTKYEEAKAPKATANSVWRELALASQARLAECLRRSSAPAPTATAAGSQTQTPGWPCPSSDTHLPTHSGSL

Cc1nc(N=Nc2ccc(S(=O)(=O)O)cc2S(=O)(=O)O)c(COP(=O)(O)O)c(C=O)c1O [PPADS, tetrasodium salt of pyridoxalphosphate-6-azophenyl-2',4'-disulfonic acid]
IC50 [1]: 1 to 5 µM | mitochondrial depolarization [2]: prevented | glutamate receptor-induced oligodendrocyte death [3]: did not significantly inhibit | ischaemia-induced damage to optic nerves (LDH release) [4]: prevented; also recorded: reduced | IC50 [5]: > 100 µM | increase in [Ca2+]i caused by ischaemia [6]: significantly blocked; also recorded: significantly reduced | generation of radical oxygen species (ROS) [7]: prevented | OGD-induced oligodendrocyte cell death [8]: significantly reduced | OGD currents after drug application versus OGD currents before drug application ([9]; after washing the antagonists out, average over BBG and PPADS, n= 15): 134 ± 32% | ischaemic inward currents ([9]; chemical ischaemia (iodoacetate, antimycin, no glucose), -70 mV, PPADS 100 µM, oATP 1 mM, BBG 50 nM): significantly reduced
